Reference: patent publication US10287619B2, “Measurement method for dehydrogenase and substrate concentration thereof, electron mediator, and measurement reagent for dehydrogenase including said electron mediator and for substrate thereof” (Dojindo Laboratories, priority 2014, dated 2019)

Tests used:
[1] = tested on: Human myeloid leukemia cells (HL60); assay: Evaluation of electron transfer with living cells (WST-8 formazan formation); assay type: cell-based; settings: HL60 25,000 to 0 cells/well; WST-8 500 μM, electron mediator 10 μM; 37° C. for 3 hours; FIG. 3A-3D
Experimental: Examples of the evaluation of the electron transfer between the electron mediators and the living cells are shown. For comparison, a similar experiment was carried out using 1-Methoxy PMS, a known electron mediator that carries out electron transfer with the living cells. Human myeloid leukemia cells (HL60) were seeded on a 96 well microplate at 25,000 to 0 cells/well, the measurement reagent was added at a final concentration shown below, after reacting at 37° C. for 3 hours and absorbance at 450 nm was measured. Final concentration of the measurement reagent: WST-8 (500 μM), the electron mediator (10 μM).

[2] = tested on: Chinese Hamster Ovarian (CHO) cells; assay: Cytotoxicity assay using LDH leaked out of the dead cells as an index; assay type: cell-based; settings: comparison of the IC50 obtained with the electron mediator of the invention (FIG. 5A) and with the commercial LDH-Cytotoxicity Assay Kit (FIG. 5B); MMC 1 mM to 0.0001 mM, 20 hours
Experimental: The example of the cytotoxicity assay using the LDH leaked out of the dead cell as an index and the solutions of the chromogenic reagent prepared using the electron mediator according to the present invention is shown. As a model of the cytotoxicity assay, cytotoxicity of mitomycin C (MMC) against Chinese Hamster Ovarian (CHO) cells was assayed.
A suspension of the CHO cells at the concentration of 1.5×10^5 cells/mL was prepared using serum-containing medium and 100 μL of the suspension was seeded to each well of a 96 well microplate. After incubating at 37° C. for 4 hours in a CO2 incubator, 10 μL of MMC was added at final concentration of 1 mM to 0.0001 mM. The microplate was incubated at 37° C. for 20 hours in the CO2 incubator. […] After incubating at 37° C. for 20 minutes in a CO2 incubator, the absorbance at 450 nm was measured using a microplate reader.
A comparative experiment using a commercially available dead cell assay kit (BioPioneer Inc., LDH-Cytotoxicity Assay Kit) using LDH as an index. […] The measurement method of the absorbance was similar to that as mentioned above except that supernatant of the medium was taken and transferred to another plate so as not to be contaminated with the living cells upon conducting the chromogenic reaction.

| SMILES | formation of the formazan attributed to the living cells (absorbance at 450 nm) [1] | 50% Inhibition concentration (IC50) against the CHO cell [2] |
| --- | --- | --- |
| COS(=O)(=O)[O-].COc1cccc2c1nc1ccccc1[n+]2C [1-Methoxy PMS, 1-methoxy phenazine methosulfate] | increasing of absorbance |  |
| CO[C@@]12[C@H](COC(N)=O)C3=C(C(=O)C(C)=C(N)C3=O)N1C[C@@H]1N[C@@H]12 [mitomycin C] |  | No difference was observed |
